The results in this text go back to patent US20230248665A1, “COMPOSITION COMPRISING DIMETHYLCHALCONE DERIVATIVE FOR PREVENTION OR TREATMENT OF METABOLIC DISEASE” (SEOUL NATIONAL UNIVERSITY R & DB FOUNDATION, priority 2020, published 2023).

What all share (format): cell-based
In assay [1] the test system is rat aortic smooth muscle cells. In words: PDGF-induced migration of vascular smooth muscle cells. The settings on record: 1 µM with 10 ng/mL PDGF; FIG. 4. The method, then:
Proliferation and migration of vascular smooth muscle cells are known to be essential steps in the progression of vascular diseases such as restenosis and arteriosclerosis. Therefore, in order to confirm the effect of the DMC derivatives of Example 1 on the migration of rat aortic smooth muscle cells, smooth muscle cells were treated with 10 ng/mL platelet-derived growth factor (PDGF) and 1 µM DMC derivative and cultured. Then, the degree of cell migration was measured.

In assay [2] the test system is vascular endothelial cells (HUVECs) and THP-1 (human monocyte) immune cells. The assay can be described thus: Binding of THP-1 immune cells to TNFα-treated vascular endothelial cells (HUVECs). The settings on record: 10 µM with 10 ng/mL TNFα, 24 hours, then THP-1 for 1 hour; FIG. 5. The method, then:
In the early stages of progression of vascular diseases such as arteriosclerosis, adhesion materials are expressed in vascular endothelial cells due to various environmental factors, thereby increasing the binding of immune cells. Therefore, in order to check whether the DMC derivatives of Example 1 affect the binding between vascular endothelial cells and immune cells, vascular endothelial cells (HUVECs) were treated with 10 ng/mL TNFα and 10 µM DMC derivative and cultured for 24 hours. Then, THP-1 (human monocyte) immune cells labeled with a fluorescent protein were added to the culture solution, and the cells were additionally cultured for 1 hour. After the culture was completed, unbound immune cells were removed using a phosphate buffer solution, and then the degree of binding of immune cells to vascular endothelial cells was determined by measuring the intensity of fluorescence.

In assay [3] the test system is human kidney proximal tubule epithelial cell (HK-2) cell line. In words: Antioxidant effect, intracellular reactive oxygen species (DCF-DA) in HK-2 kidney cells after H2O2. The settings on record: 1 µM for 18 hours, then 500 µM H2O2 for 6 hours, FIG. 6. The method, then:
First, the antioxidant effect was checked using kidney cells. More specifically, a human kidney proximal tubule epithelial cell (HK-2) cell line was treated with 1 µM DMC derivative and cultured for 18 hours. Then, 500 µM H2O2 was added to the culture medium and the culture medium was incubated for 6 hours. Thereafter, the amount of intracellular reactive oxygen species (iROS) was measured using dichlorohydro-fluorescein diacetate (DCF-DA).

The test system of assay [4] is AMPK. In words: AMPK activity, western blotting of phosphorylated AMPK in C2C12 myotubes. The settings on record: 10 µM, 24 hours, FIG. 2. The text has this:
AMP-activated protein kinase (AMPK) is a member of serine/threonine kinases, and is an enzyme known as an energy sensor which senses the intracellular energy state. Moreover, the activation of AMPK is known to show the effect of increasing glucose transport and promoting fatty acid oxidation in skeletal muscle, and to […] the synthesis of cholesterol and triglycerides, decrease lipogenesis, and increase fatty acid oxidation, and ketogenesis, and the like in the liver. Further, the activation of AMPK is known to reduce adipogenesis in adipose tissue and increase insulin secretion in pancreatic beta cells, thereby being able to be applied to the treatment of various metabolic diseases. Therefore, western blotting was performed in order to confirm the effect of the DMC derivatives of Example 1 on AMPK activity. More specifically, the C2C12 myoblasts were primarily cultured in DMEM supplemented with 10% fetal bovine serum, and then cultured in DMEM supplemented with 2% horse serum for 5 days to differentiate into myotubes. Then, the differentiated myotubes were treated with 10 µM DMC derivative and cultured for 24 hours, and then cells were collected, and disrupted using an ultrasonic disperser to obtain proteins. Next, western blotting was performed using a pAMPK antibody (Cell Signaling Technology) and an AMPK antibody (Cell Signaling Technology) to measure the amount of phosphorylated AMPK. 1 mM AICAR was used as a positive control, and 20 µg of protein was used for each sample in western blotting.

For the molecule `COc1c(C)c(O)c(C)c(O)c1C(=O)/C=C/c1ccc(F)cc1` [Chemical Formula 2, 1-(2′,4′-dihydroxy-6′-methoxy-3′,5′-dimethylphenyl)-3-(4-fluorophenyl)-2-propen-l-one], the “migration of vascular smooth muscle cells” value (shortened to “migration”) in assay [1] was “similarly or more effectively suppressed cell migration by PDGF than AICAR and Rosi, which were used as positive controls, and DMC”. The “binding of immune cells to vascular endothelial cells (fluorescence)” value (from here on “binding of immune cells”) in assay [2] is recorded as “similarly or more effectively suppressed the binding of immune cells than Rosi”. For the same molecule, in assay [3], the “amount of intracellular reactive oxygen species (ROS)” value (“amount” below) is given as “effectively reduced ROS”.
With `COc1c(C)c(O)c(C)c(O)c1C(=O)/C=C/c1ccc(F)c(F)c1` [Chemical Formula 6, 1-(2′,4′-dihydroxy-6′-methoxy-3′,5′-dimethylphenyl)-3-(3,4-difluorophenyl)-2-propen-1-one], the “activity of AMPK (phosphorylated AMPK)” value in assay [4] is “increased the activity of AMPK similarly to or more effectively than the positive controls”. The “binding of immune cells” value in assay [2] is on record as “similarly or more effectively suppressed the binding of immune cells than Rosi”. In assay [3], the “amount” value is listed as “effectively reduced ROS”.
In the case of `COc1c(C)c(O)c(C)c(O)c1C(=O)/C=C/c1ccc(N(C)C)cc1` [Chemical Formula 7, 1-(2,4′-dihydroxy-6′-methoxy-3′,5′-dimethylphenyl)-3-(4-(N,N-dimethylamino)phenyl)-2-propen-1-one], in assay [2], the “binding of immune cells” value is listed as “similarly or more effectively suppressed the binding of immune cells than Rosi”. In addition, the “amount” value in assay [3] is on record as “effectively reduced ROS”.
Take `COc1c(C)c(O)c(C)c(O)c1C(=O)/C=C/c1ccc(Cl)cc1` [Chemical Formula 8, 1-(2′,4′-dihydroxy-6′-methoxy-3′,5′-dimethylphenyl)-3-(4-chlorophenyl)-2-propen-1-one]: the “activity of AMPK (phosphorylated AMPK)” value in assay [4] is listed as “increased the activity of AMPK similarly to or more effectively than the positive controls”. For the same molecule, the “binding of immune cells” value in assay [2] is “similarly or more effectively suppressed the binding of immune cells than Rosi”. Besides, in assay [3], the “amount” value is “effectively reduced ROS”.
On the same counts, the results for `COc1c(C)c(O)c(C)c(O)c1C(=O)/C=C/c1ccc(C(F)(F)F)cc1` [Chemical Formula 9, 1-(2′,4′-dihydroxy-6′-methoxy-3′,5′-dimethylphenyl)-3-(4-(trifluoromethyl)phenyl)-2-propen-1-one] are “increased the activity of AMPK similarly to or more effectively than the positive controls”, “similarly or more effectively suppressed the binding of immune cells than Rosi” and “effectively reduced ROS”.
In the case of `COc1ccc(OC)c(/C=C/C(=O)c2c(O)c(C)c(O)c(C)c2OC)c1` [Chemical Formula 10, 1-(2′,4′-dihydroxy-6′-methoxy-3′,5′-dimethylphenyl)-3-(2,5-dimethoxyphenyl)-2-propen-1-one], in assay [2], the “binding of immune cells” value is listed as “similarly or more effectively suppressed the binding of immune cells than Rosi”. The “amount” value in assay [3] was “effectively reduced ROS”.
Take `COCOc1c(C)c(O)c(C(=O)/C=C/c2ccc(F)c(F)c2)c(OC)c1C` [Chemical Formula 11, 1-(2′-hydroxy-4′-(methoxymethoxy)-6′-methoxy-3′,5′-dimethylphenyl)-3-(3,4-difluorophenyl)-2-propen-1-one]: the “activity of AMPK (phosphorylated AMPK)” value in assay [4] is given as “increased the activity of AMPK similarly to or more effectively than the positive controls”. The “binding of immune cells” value in assay [2] is reported as “similarly or more effectively suppressed the binding of immune cells than Rosi”. Also, the “amount” value in assay [3] is reported as “effectively reduced ROS”.
On the same counts, the results for `COCOc1c(C)c(O)c(C(=O)/C=C/c2ccc(Cl)cc2)c(OC)c1C` [Chemical Formula 12, 1-(2′-hydroxy-4′-(methoxymethoxy)-6′-methoxy-3′,5′-dimethyphenyl)-3-(4-chlorophenyl)-2-propen-1-one] are “increased the activity of AMPK similarly to or more effectively than the positive controls”, “similarly or more effectively suppressed the binding of immune cells than Rosi” and “effectively reduced ROS”.
Turning to `COCOc1c(C)c(O)c(C(=O)/C=C/c2ccc(C(F)(F)F)cc2)c(OC)c1C` [Chemical Formula 14, 1-(2′-hydroxy-4′-(methoxymethoxy)-6′-methoxy-3′,5′-dimethylphenyl)-3-(4-(trifluoromethyl)phenyl)-2-propen-1-one], the “binding of immune cells” value in assay [2] was “similarly or more effectively suppressed the binding of immune cells than Rosi”. The “amount” value in assay [3] was “effectively reduced ROS”.
With `COc1c(C)c(O)c(C)c(O)c1C(=O)/C=C/c1ccccc1F` [Chemical Formula 31, 1-(2′,4′-dihydroxy-6′-methoxy-3′,5′-dimethylphenyl)-3-(2-fluorophenyl)-2-propen-1-one], the “activity of AMPK (phosphorylated AMPK)” value in assay [4] is “increased the activity of AMPK similarly to or more effectively than the positive controls”. For the same molecule, the “migration” value in assay [1] was “similarly or more effectively suppressed cell migration by PDGF than AICAR and Rosi, which were used as positive controls, and DMC”. The “amount” value in assay [3] is on record as “effectively reduced ROS”.
As for `COCOc1c(C)c(O)c(C(=O)/C=C/c2cccc(F)c2)c(OC)c1C` [Chemical Formula 35, 1-(2′-hydroxy-4′-(methoxymethoxy)-6′-methoxy-3′,5′-dimethylphenyl)-3-(3-fluorophenyl)-2-propen-1-one], in assay [2], the “binding of immune cells” value is reported as “similarly or more effectively suppressed the binding of immune cells than Rosi”. For the same molecule, the “amount” value in assay [3] was “effectively reduced ROS”.
For `COCOc1c(C)c(O)c(C(=O)/C=C/c2ccccc2Cl)c(OC)c1C` [Chemical Formula 38, 1-(2′-hydroxy-4′-(methoxymethoxy)-6′-methoxy-3′,5′-dimethylphenyl)-3-(2-chlorophenyl)-2-propen-1-one], the “migration” value in assay [1] is “similarly or more effectively suppressed cell migration by PDGF than AICAR and Rosi, which were used as positive controls, and DMC”. The “binding of immune cells” value in assay [2] is “similarly or more effectively suppressed the binding of immune cells than Rosi”.
For the molecule `COc1c(C)c(O)c(C)c(O)c1C(=O)/C=C/c1ccc(C)cc1C` [Chemical Formula 39, 1-(2′,4′-dihydroxy-6′-methoxy-3′,5′-dimethylphenyl)-3-(2,4-dimethylphenyl)-2-propen-1-one], the “activity of AMPK (phosphorylated AMPK)” value in assay [4] was “increased the activity of AMPK similarly to or more effectively than the positive controls”. Moreover, the “migration” value in assay [1] is “similarly or more effectively suppressed cell migration by PDGF than AICAR and Rosi, which were used as positive controls, and DMC”. The “binding of immune cells” value in assay [2] is on record as “similarly or more effectively suppressed the binding of immune cells than Rosi”.
